Results from US9096538B2, “Pharmaceutical comprising PPAR agonist” (Senju Pharmaceutical Co., Ltd., priority 2005, dated 2015).

What was measured:
[1] = system: monkey meibomian gland epithelial cell; test: Test Example 3: increase in cell number, cultured monkey meibomian gland epithelial cell (Cell Counting Kit-8); type: cell-based, cynomolgus monkey; conditions: 48 + 48 hours; for Cell proliferation (%): no addition group = 100%, average ± standard deviation, N = 5
Method: A female cynomolgus monkey (Environmental Biological Life Science Research Center) was used. The experimental animal was used according to the International Guiding Principles for Biomedical Research Involving Animals.
A meibomian gland epithelial cell was prepared from a monkey eyelid. An eyelid was isolated, and stored in Dulbecco's phosphate buffered saline (D-PBS; Invitrogen), and this was transferred to a clean bench. The following cell preparation procedures were all performed sterilely.
After the isolated eyelid was immersed in 80% ethanol for 30 seconds, the eyelid was washed with D-PBS with 1% penicillin-streptomycin (Invitrogen) added thereto three times, and transferred to a minimum essential medium (MEM; Invitrogen). A fat tissue and a muscle tissue surrounding a meibomian gland tissue were removed under a stereomicroscope, and this was transferred to MEM containing 0.475 U/mL of collagenase A (Roche Diagnostics) and 2.4 U/mL of dispase II (Roche Diagnostics), and incubated at 37° C. overnight. After completion of incubation, the enzyme-treated tissue was placed again under the stereomicroscope, eyelashes and an eyelid connective tissue were removed, and a meibomian gland tissue was isolated. To the isolated gland tissue was added 1 mL of trypsin-EDTA (Invitrogen), and this was incubated at 37° C. for 5 minutes. After incubation, to this was added 9 mL of MEM containing 10% FBS to stop the enzymatic reaction, then, suction and exhaustion were repeated five times using a 10 mL pipette and, further, five times using an injection syringe equipped with a 21 G injection needle to disperse tissue-constituting cells. […] The cell suspension which had passed through the filter was recovered in a 50 mL centrifuge tube, and subjected to centrifugation at room temperature and 1,500 rpm for 5 minutes. To a cell layer containing an objective cell obtained by centrifugation was added 80 μL of D-PBS containing 0.5% bovine serum albumin (BSA; Sigma-Aldrich) to sufficiently suspend the cell, to this was added 20 μL of Anti-Fibroblast Microbeads (Militenyi Biotec), and this was allowed to stand at room temperature for 30 minutes. After completion of the reaction with an antibody, to this was added 2 mL of D-PBS containing 0.5% BSA, and this was subjected again to centrifugation at room temperature and 1,500 rpm for 5 minutes. To a cell layer containing an objective cell obtained by centrifugation was added 1 mL of D-PBS containing 0.5% BSA to sufficiently suspend the cell, and this was added dropwise to an LD column (Militenyi Biotec) equilibrated in advance using a column washing solution (D-PBS containing 2 mM EDTA (Dojindo Laboratories) and 0.5% BSA). Then, 2 mL of the column washing solution was added dropwise to the LD column. […] The cell recovered in the centrifuge tube was subjected again to centrifugation at room temperature and 1,500 rpm for 5 minutes to remove the supernatant. To this precipitation was added 1 mL of Defined Keratinocyte-Serum Free Medium (DK-SFM; Invitrogen) to suspend the cell and thereby, a meibomian gland epithelial cell suspension was prepared. The prepared cell was seeded on a culture dish (IWAKI) for cell culturing having a diameter of 3.5 cm which had been coated with a type I collagen solution (Nitta Gelatin Inc.) in advance, and to which 3 mL of DK-SFM had been added. The seeded cell was cultured in an incubator (SANYO) set at 37° C., 5% CO2, 95% air, and 100% humidity, and the culture medium was exchanged with a fresh culture medium every 48 hours until the test day.
Each test substance was dissolved in ethanol (Wako Pure Chemical Industries, Ltd.) to a 200-fold concentration of a final concentration in the culture medium, and this was stored at −80° C. until immediately before use.
As a culture dish for a cell proliferation promotion test, a 96-well culture dish for tissue culture (Corning) was used.

[2] = system: normal human corneal epithelial cell; test: Test Example 5: increase in cell number, normal human corneal epithelial cell, 24 hours (Cell Counting Kit-8); type: cell-based; conditions: no addition group = 100%, average ± standard deviation, N = 3 to 4
Method: A normal human corneal epithelial cell (KURABO) was used.
As the test substance, the following compounds were used. PPARδ agonist: L-165041 (Sigma-Aldrich), GW-501516 (Alexis)
In addition, as a positive control for confirming the cell proliferation promoting effect, a medium in which a mouse-derived epithelial growth factor (mEGF) contained in an HCGS proliferation additive set (KURABO) was added to a basal medium (basal medium+1 ng/mL mEGF) was used.
This cell suspension was seeded on a fibronectin-coated multiwell plate (24 well, BECTON DICKINSON) so that the cell number became 2×10^4 cells/500 μL/well (since the bottom area is 2 cm^2, the number is 1×10^4 cells/cm^2).
Further, 24 hours thereafter, the culture medium was exchanged with each 400 μL of the following culture media. • [1] Only basal medium (no addition group) • [2] Basal medium+mEGF (final concentration: 1 ng/mL; positive control group) • [3] Basal medium+L-165041 (final concentration: 0.01 μM and 0.1 μM) • [4] Basal medium+GW-501516 (final concentration: 0.001 μM and 0.01 μM)

`CCCc1c(OCCCOc2ccc(OCC(=O)O)cc2)ccc(C(C)=O)c1O` [L-165041, (4-(3-(4-acetyl-3-hydroxy-2-propyl)phenoxy)propoxyphenoxy)acetic acid] was tested, and the “Cell proliferation (%)” value ([1]; 10^−6 M) was 142.8 ± 5.4%, the “Cell proliferation (%)” value ([1]; 10^−7 M) was 136.1 ± 4.7% and the “cell proliferation compared to the no addition group (in words)” value ([1]; p<0.01 where significant) was “significantly higher than in the no addition group”. The “Cell proliferation (%)” value ([2]; 10^−7 M) was 127.8 ± 6.0% and the “Cell proliferation (%)” value ([2]; 10^−8 M) was 128.1 ± 5.3%.
